We go through 21 molecules from patent US20210355106A1, “NEW AMINO-PYRIMIDONYL-PIPERIDINYL DERIVATIVES, A PROCESS FOR THEIR PREPARATION AND PHARMACEUTICAL COMPOSITIONS CONTAINING THEM” (LES LABORATOIRES SERVIER, priority 2018, published 2021).

The target of experiment [1] is T1, USP7 (Homo sapiens, UniProt Q93009, C315A).
T1 construct: 0.25 nM His-His-USP7 (aa208-560, |C315A|) was incubated with compound; His-His (N)
The experiment is described as follows: Inhibition of USP7 by Fluorescence Intensity (FLINT) readings, Ubiquitin-Rhodamine-110 substrate. The conditions noted are these: 0.25 nM His-His-USP7 (aa208-560), 60 minutes at 30° C. preincubation; Ki determined from IC50 according to Cer et al. In kind it is biochemical. The procedure, abridged:
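His-tagged USP7 (aa208-560, C315A), 0.25 nM, preincubated with compound 60 min at 30 °C in 100 mM Bicine pH 8.0, 0.01% Triton X-100, 1 mM TCEP, 10% DMSO. Ubiquitin-Rhodamine-110 (50 nM or 4 μM) added; kinetic fluorescence (Ex 485/Em 535 nm) over 21 min; IC50 from 11-point curves, Ki derived from IC50.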

The subject of experiment [2] is Z138 mantle cell lymphoma tumour cell lines. The experiment is described as follows: In vitro cytotoxicity, MTT assay. In kind it is cell-based. The note with it: Homo sapiens, Z-138; Z138 cells, exposed to the test compounds for 96 hours. The procedure, abridged:
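Z138 cells exposed to compounds for 96 hours, then MTT added for 4 hours. Formazan absorbance at 540 nm serves as the measure of viable cell number.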
(In general: Tetrazolium dyes change colour on reduction, which living cells bring about.)

What is called Ki is a dissociation constant, usually derived from enzyme kinetics or from competition with a known ligand. High values mean weaker binding, low ones tighter binding. What is called IC50 is the point on the concentration scale where inhibition reaches its midpoint.

T1 sequence (Q93009 208-560 C315A): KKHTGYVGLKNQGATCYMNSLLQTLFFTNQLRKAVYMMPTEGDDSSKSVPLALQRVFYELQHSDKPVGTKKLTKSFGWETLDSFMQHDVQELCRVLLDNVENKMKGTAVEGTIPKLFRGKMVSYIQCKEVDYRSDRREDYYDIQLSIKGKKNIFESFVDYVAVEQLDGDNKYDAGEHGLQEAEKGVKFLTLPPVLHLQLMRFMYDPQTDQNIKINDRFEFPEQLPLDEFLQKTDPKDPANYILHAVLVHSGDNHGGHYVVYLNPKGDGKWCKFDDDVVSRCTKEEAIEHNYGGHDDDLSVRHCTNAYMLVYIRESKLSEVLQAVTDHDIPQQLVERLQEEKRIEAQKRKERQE

For `Nc1c(Oc2ccc(F)cc2)ncn(CC2(O)CCN(C(=O)[C@@H]3CCN(C(=O)Nc4ccc(F)cc4)C[C@H]3c3ccccc3)CC2)c1=O` [Example 84, (3R,4R)-4-[4-[[5-amino-4-(4-fluorophenoxy)-6-oxo-pyrimidin-1-yl]methyl]-4-hydroxy-piperidine-1-carbonyl]-N-(4-fluorophenyl)-3-phenyl-piperidine-1-carboxamide], in experiment [1], the affinity corresponds to a Ki of 21 nM. Besides, the half-maximal inhibitory concentration (IC50) in experiment [2] amounted to 18 nM.

Molecule `Cc1ccc(-c2cccc(NC(=O)N3CC[C@@H](C(=O)N4CCC(O)(Cn5cnc(Oc6ccc(F)cc6)c(N)c5=O)CC4)[C@H](c4ccccc4)C3)c2)cn1` [Example 85, (3R,4R)-4-[4-[[5-amino-4-(4-fluorophenoxy)-6-oxo-pyrimidin-1-yl]methyl]-4-hydroxy-piperidine-1-carbonyl]-N-[3-(6-methyl-3-pyridyl)phenyl]-3-phenyl-piperidine-1-carboxamide] had a Ki in experiment [1] of 9.9 nM. In experiment [2], this molecule displayed an IC50 of 34 nM.

Consider `Nc1c(Oc2ccc(F)cc2)ncn(CC2(O)CCN(C(=O)[C@@H]3CCN(C(=O)Nc4nccs4)C[C@H]3c3ccccc3)CC2)c1=O` [Example 86, (3R,4R)-4-[4-[[5-amino-4-(4-fluorophenoxy)-6-oxo-pyrimidin-1-yl]methyl]-4-hydroxy-piperidine-1-carbonyl]-3-phenyl-N-thiazol-2-yl-piperidine-1-carboxamide], for which, in experiment [1], the Ki amounted to 58 nM. Besides, in experiment [2], the IC50 turned out to be 838 nM.

With `Nc1c(Oc2ccc(F)cc2)ncn(CC2(O)CCN(C(=O)[C@@H]3CCN(C(=O)Nc4nc5ccccc5s4)C[C@H]3c3ccccc3)CC2)c1=O` [Example 87, (3R,4R)-4-[4-[[5-amino-4-(4-fluorophenoxy)-6-oxo-pyrimidin-1-yl]methyl]-4-hydroxy-piperidine-1-carbonyl]-N-(1,3-benzothiazol-2-yl)-3-phenyl-piperidine-1-carboxamide], the Ki in experiment [1] amounted to 88 nM. Besides, the IC50 in experiment [2] was determined as 45 nM.

`Nc1c(Oc2ccc(F)cc2)ncn(CC2(O)CCN(C(=O)[C@@H]3CCN(C(=O)Nc4ccccc4F)C[C@H]3c3ccccc3)CC2)c1=O` [Example 89] came in with a Ki in experiment [1] of 20 nM. In experiment [2], this molecule returned an IC50 of 26 nM.

`Cc1cc(C(=O)N2CC[C@@H](C(=O)N3CCC(O)(Cn4cnc(Oc5ccc(F)cc5)c(N)c4=O)CC3)[C@H](c3ccccc3)C2)ccn1` [Example 91, 5-amino-6-(4-fluorophenoxy)-3-[[4-hydroxy-1-[(3R,4R)-1-(2-methylpyridine-4-carbonyl)-3-phenyl-piperidine-4-carbonyl]4-piperidyl]methyl]pyrimidin-4-one] returned a Ki in experiment [1] of 13 nM. In experiment [2], this molecule showed an IC50 of 76 nM.

Take `Cc1cncc(C(=O)N2CC[C@@H](C(=O)N3CCC(O)(Cn4cnc(Oc5ccc(F)cc5)c(N)c4=O)CC3)[C@H](c3ccccc3)C2)c1` [Example 92, 5-amino-6-(4-fluorophenoxy)-3-({4-hydroxy-1-[(3R,4R)-1-(5-methylpyridine-3-carbonyl)-3-phenylpiperidine-4-carbonyl]piperidin-4-yl}methyl)pyrimidin-4(3H)-one]: the Ki in experiment [1] came out at 4.9 nM. The molecule also had an IC50 in experiment [2] of 45.7 nM.

On to `Cc1cccc(C(=O)N2CC[C@@H](C(=O)N3CCC(O)(Cn4cnc(Oc5ccc(F)cc5)c(N)c4=O)CC3)[C@H](c3ccccc3)C2)n1` [Example 93], for which affinity in experiment [1] was put at a Ki of 51 nM. The molecule also displayed an IC50 in experiment [2] of 86.4 nM.

`Cc1ccnc(C(=O)N2CC[C@@H](C(=O)N3CCC(O)(Cn4cnc(Oc5ccc(F)cc5)c(N)c4=O)CC3)[C@H](c3ccccc3)C2)c1` [Example 94, 5-amino-6-(4-fluorophenoxy)-3-[[4-hydroxy-1-[(3R,4R)-1-(4-methylpyridine-2-carbonyl)-3-phenyl-piperidine-4-carbonyl]-4-piperidyl]methyl]pyrimidin-4-one] returned a Ki in experiment [1] of 30 nM. The IC50 in experiment [2] came out at 49 nM.

For `Cn1c(C(=O)N2CC[C@@H](C(=O)N3CCC(O)(Cn4cnc(Oc5ccc(F)cc5)c(N)c4=O)CC3)[C@H](c3ccccc3)C2)cnc1Br` [Example 95, 5-amino-3-({1-[(3R,4R)-1-(2-bromo-1-methyl-11H-imidazole-5-carbonyl)-3-phenylpiperidine-4-carbonyl]-4-hydroxypiperidin-4-yl}methyl)-6-(4-fluorophenoxy)pyrimidin-4(3H)-one], the Ki in experiment [1] was 21 nM. This molecule also had an IC50 in experiment [2] of 27 nM.

Consider `Cc1ccc(-c2ncc(C(=O)N3CC[C@@H](C(=O)N4CCC(O)(Cn5cnc(Oc6ccc(F)cc6)c(N)c5=O)CC4)[C@H](c4ccccc4)C3)n2C)cn1` [Example 96, 5-amino-6-(4-fluorophenoxy)-3-[(4-hydroxy-1-{(3R,4R)-1-[1-methyl-2-(6-methylpyridin-3-yl)-1H-imidazole-5-carbonyl]-3-phenylpiperidine-4-carbonyl}piperidin-4-yl)methyl]pyrimidin-4(3H)-one], for which the affinity in experiment [1], expressed as Ki, was 7.21 nM. The same molecule yielded a half-maximal inhibitory concentration (IC50) in experiment [2] of 27.3 nM.

On to `Cc1cc(C(=O)N2CC[C@@H](C(=O)N3CCC(O)(Cn4cnc(Oc5ccc(F)cc5)c(N)c4=O)CC3)[C@H](c3ccccc3)C2)cc(C)n1` [Example 97, 5-amino-3-({1-[(3R,4R)-1-(2,6-dimethylpyridine-4-carbonyl)-3-phenylpiperidine-4-carbonyl]-4-hydroxypiperidin-4-yl}methyl)-6-(4-fluorophenoxy)pyrimidin-4(3H)-one], for which the Ki in experiment [1] worked out at 9.8 nM. The molecule also showed an IC50 in experiment [2] of 42.7 nM.

`Nc1c(Oc2ccc(F)cc2)ncn(CC2(O)CCN(C(=O)[C@@H]3CCN(C(=O)c4cc(F)cc(Br)c4)C[C@H]3c3ccccc3)CC2)c1=O` [Example 98] had a Ki in experiment [1] of 3.05 nM. In experiment [2], this molecule gave an IC50 of 7 nM.

Consider `Nc1c(Oc2cccc(C(F)(F)F)c2)ncn(CC2(O)CCN(C(=O)[C@@H]3CCN(C(=O)c4sc(I)cc4F)C[C@H]3c3ccccc3)CC2)c1=O` [Example 99, 5-amino-3-[[1-((3R,4R)-1-(3-fluoro-5-iodo-thiophene-2-carbonyl)-3-phenyl-piperidine-4-carbonyl]-4-hydroxy-4-piperidyl]methyl]-6-[3-(trifluoromethyl)phenoxy]pyrimidin-4-one], for which the Ki in experiment [1] is 56 nM. Moreover, in experiment [2], the IC50 turned out to be 120 nM.

For `Cc1nc(Br)sc1C(=O)N1CC[C@@H](C(=O)N2CCC(O)(Cn3cnc(Oc4cccc(C(F)(F)F)c4)c(N)c3=O)CC2)[C@H](c2ccccc2)C1` [Example 100, 5-amino-3-[[1-[(3R,4R)-1-(2-bromo-4-methyl-thiazole-5-carbonyl)-3-phenyl-piperidine-4-carbonyl]-4-hydroxy-4-piperidyl]methyl]-6-[3-(trifluoromethyl)phenoxy]pyrimidin-4-one], the Ki in experiment [1] is 24 nM. This molecule yielded an IC50 in experiment [2] of 47.6 nM.

In turn, `Cc1ccc(-c2cc(F)c(C(=O)N3CC[C@@H](C(=O)N4CCC(O)(Cn5cnc(Oc6cccc(C(F)(F)F)c6)c(N)c5=O)CC4)[C@H](c4ccccc4)C3)s2)cn1` [Example 101, 5-amino-3-[[1-[(3R,4R)-1-[3-fluoro-5-(46-methyl-3-pyridyl)thiophene-2-carbonyl]-3-phenyl-piperidine-4-carbonyl]-4-hydroxy-4-piperidyl]methyl]-6-[3-(trifluoromethyl)phenoxy]pyrimidin-4-one] registered a Ki in experiment [1] of 11 nM. This molecule also displayed an IC50 in experiment [2] of 25.3 nM.

`Nc1c(Oc2ccc(F)cc2)ncn(CC2(O)CCN(C(=O)[C@@H]3CCN(C(=O)c4cccc5cnccc45)C[C@H]3c3ccccc3)CC2)c1=O` [Example 102, 5-amino-6-(4-fluorophenoxy)-3-({4-hydroxy-1-[(3R,4R)-1-(isoquinoline-5-carbonyl)-3-phenylpiperidine-4-carbonyl]piperidin-4-yl}methyl)pyrimidin-4(3H)-one]: the Ki in experiment [1] was 4.1 nM. This molecule also had an IC50 in experiment [2] of 9.31 nM.

`Cc1nc(-c2ccc(C(F)(F)F)nc2)sc1C(=O)N1CC[C@@H](C(=O)N2CC[C@](O)(Cn3cnc(Oc4ccc(F)cc4)c(N)c3=O)C(F)(F)C2)[C@H](c2ccccc2)C1` [Example 103] had a Ki in experiment [1] of 6.4 nM. It took 6.63 nM to reach half-maximal inhibition in experiment [2] (IC50).

`Nc1c(Oc2ccc(F)cc2)ncn(C[C@@]2(O)CCN(C(=O)[C@@H]3CCN(C(=O)c4sc(I)cc4F)C[C@H]3c3ccccc3)CC2(F)F)c1=O` [Example 104, 5-amino-3-[[(4S)-3,3-difluoro-1-[(3R,4R)-1-(3-fluoro-5-iodo-thiophene-2-carbonyl)-3-phenyl-piperidine-4-carbonyl]-4-hydroxy-4-piperidyl]methyl]-6-(4-fluorophenoxy)pyrimidin-4-one] yielded a Ki in experiment [1] of 15 nM. Further, the IC50 in experiment [2] came to 37.2 nM.

`Cc1ccc(-c2cc(F)c(C(=O)N3CC[C@@H](C(=O)N4CC[C@](O)(Cn5cnc(Oc6ccc(F)cc6)c(N)c5=O)C(F)(F)C4)[C@H](c4ccccc4)C3)s2)cn1` [Example 105, 5-amino-3-([(4S)-3,3-difluoro-1-((3R,4R)-1-[3-fluoro-5-(6-methylpyridin-3-yl)thiophene-2-carbonyl]-3-phenylpiperidine-4-carbonyl}-4-hydroxypiperidin-4-yl}methyl}-6-(4-fluorophenoxy)pyrimidin-4(3H)-one] returned a Ki in experiment [1] of 2.6 nM. The molecule also displayed an IC50 in experiment [2] of 5.08 nM.

In experiment [1], `Nc1c(Oc2ccc(F)cc2)ncn(CC2(O)CCN(C(=O)[C@@H]3CCN(C(=O)c4sc(Cl)c(Br)c4F)C[C@H]3c3ccccc3)CC2)c1=O` [Example 106, 5-amino-3-[[I-[(3R,4R)-1-(4-bromo-5-chloro-3-fluoro-thiophene-2-carbonyl)-3-phenyl-piperidine-4-carbonyl]-4-hydroxy-4-piperidyl]methyl]-6-(4-fluorophenoxy)pyrimidin-4-one] had a Ki of 15 nM. Also, in experiment [2], the IC50 turned out to be 18.6 nM.
